≈ marks a conversion by molar mass, not a printed value.
What was measured:
[1] = Solubility was measured in 50 mM phosphate buffer at pH 7.4; format: physicochemical
[2] = molecular target: Glutamate receptor ionotropic, AMPA (Rattus norvegicus, UniProt P19490+P19491+P19492+P19493); test: In vitro binding affinity against Ionotropic glutamate receptor AMPA binding site using [3H]- AMPA as radioligand on rat cortical synaptosomal membranes
[3] = In vitro binding affinity against glycine receptor binding site using [3H]- Glycine as radioligand on rat cortical synaptosomal membranes
[4] = species on record: Mus musculus; test: Anticonvulsant activity in mice was determined from maximal electroshock assay; format: functional

| Structure (SMILES) | solubility [1] [µg/mL] | IC50 [2] [nM] | IC50 [3] [nM] | ED50 [4] [mg/kg] |
| --- | --- | --- | --- | --- |
| C=Cc1c(Br)cc2nc(O)c(O)nc2c1CN(C)CC(=O)O | 170 (≈ 462 µM) | 1180 | – | – |
| CCOC(=O)CN(C)Cc1c(CC)c([N+](=O)[O-])cc2nc(O)c(O)nc12 | 150 (≈ 412 µM) | 1590 | > 10000 | – |
| CCc1c(Br)cc2nc(O)c(O)nc2c1CN(C)CC(=O)O | 140 (≈ 378 µM) | 2320 | – | – |
| CCc1ccc2nc(O)c(O)nc2c1CN(C)CC(=O)O | – | > 10000 | > 10000 | – |

Second part, led by results:

| solubility [1] [µg/mL] | IC50 [2] [nM] | IC50 [3] [nM] | Structure (SMILES) | ED50 [4] [mg/kg] |
| --- | --- | --- | --- | --- |
| 420 (≈ 1250 µM) | 140 | 470 | CCc1c([N+](=O)[O-])cc2nc(O)c(O)nc2c1CN(C)CC(=O)O | – |
| 8.6 (≈ 31.1 µM) | – | 370 | CN1CCc2c([N+](=O)[O-])cc3nc(O)c(O)nc3c2C1 | 0.44 |

— ChEMBL document CHEMBL1132249, “Design and synthesis of novel quinoxaline-2,3-dione AMPA/GlyN receptor antagonists: amino acid derivatives” (J Med Chem, 1999)
